Where two headings read alike, the source gives them in different places.
Columns and labels:
CYP3A4/5 = CYP3A4/5 induction in cultured human hepatocytes; format: in vitro ADME
CYP1A2 [1] = format: in vitro ADME, human
CYP2C9 [2] = molecular target: CYP2C9 (Homo sapiens, UniProt P11712); conditions: HLM; TV‐45065 0.05 to 50 μmol l^–1; printed CYP2C8/9
CYP2C8 [3] = format: in vitro ADME, human
CYP2C8 [4] = molecular target: T1, CYP2C8 (Homo sapiens, UniProt P10632); conditions: HLM; TV‐45065 0.05 to 50 μmol l^–1; printed CYP2C8/9
T1 sequence (P10632 1-490): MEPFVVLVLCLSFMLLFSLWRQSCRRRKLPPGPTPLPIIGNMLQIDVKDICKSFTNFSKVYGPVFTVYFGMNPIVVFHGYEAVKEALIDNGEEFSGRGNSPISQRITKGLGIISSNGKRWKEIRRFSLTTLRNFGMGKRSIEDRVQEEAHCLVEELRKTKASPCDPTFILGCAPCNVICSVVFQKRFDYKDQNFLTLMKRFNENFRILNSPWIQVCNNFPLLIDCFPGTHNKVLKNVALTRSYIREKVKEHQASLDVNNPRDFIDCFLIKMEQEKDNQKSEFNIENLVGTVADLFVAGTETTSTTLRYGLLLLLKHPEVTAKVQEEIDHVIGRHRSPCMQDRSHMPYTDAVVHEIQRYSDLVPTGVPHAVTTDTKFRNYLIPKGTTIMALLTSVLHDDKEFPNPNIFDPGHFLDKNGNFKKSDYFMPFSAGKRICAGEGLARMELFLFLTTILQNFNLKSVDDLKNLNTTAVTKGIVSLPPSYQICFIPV

CYP2C19 [5] = molecular target: CYP2C19 (Homo sapiens, UniProt P33261); conditions: HLM; TV‐45065 0.05 to 50 μmol l^–1
CYP2D6 [6] = molecular target: T2, CYP2D6 (Homo sapiens, UniProt P10635); experiment: CYP2D6 inhibition in human liver microsomes; format: in vitro ADME
CYP2B6 = format: in vitro ADME, human
CYP1A2 [7] = molecular target: T3, CYP1A2 (Homo sapiens, UniProt P05177); conditions: HLM; TV‐45065 0.05 to 50 μmol l^–1
T3 sequence (P05177 1-516): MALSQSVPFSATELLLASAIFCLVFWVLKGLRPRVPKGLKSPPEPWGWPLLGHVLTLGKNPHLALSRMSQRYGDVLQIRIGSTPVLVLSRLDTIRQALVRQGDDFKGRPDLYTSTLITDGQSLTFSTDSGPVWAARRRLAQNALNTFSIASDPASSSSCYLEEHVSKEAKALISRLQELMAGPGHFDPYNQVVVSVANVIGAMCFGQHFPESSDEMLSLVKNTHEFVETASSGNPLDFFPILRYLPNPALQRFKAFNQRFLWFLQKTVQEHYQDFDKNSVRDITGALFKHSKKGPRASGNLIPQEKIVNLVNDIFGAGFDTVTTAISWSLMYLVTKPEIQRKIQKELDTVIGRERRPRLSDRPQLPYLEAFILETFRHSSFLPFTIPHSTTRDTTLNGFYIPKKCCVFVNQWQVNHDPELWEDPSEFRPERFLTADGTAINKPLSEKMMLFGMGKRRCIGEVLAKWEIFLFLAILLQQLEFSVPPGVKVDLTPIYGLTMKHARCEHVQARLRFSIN

CYP3A4 = CYP3A4 (Homo sapiens, UniProt P08684); experiment: CYP3A4 inhibition in human liver microsomes; format: in vitro ADME; conditions: HLM; TV‐45065 0.05 to 50 μmol l^–1
[8] = cited from earlier work; for elimination half‐life: metabolite
CYP2C19 [9] = format: in vitro ADME, human
CYP2C9 [10] = format: in vitro ADME, human
CYP2D6 [11] = molecular target: T2, CYP2D6; experiment: clinical; conditions: plasma, 100 mg
CYP2D6 [12] = molecular target: T2, CYP2D6
clinical = conditions: human, plasma, oral, 45 mg
CYP2D6 [13] = molecular target: T2, CYP2D6; conditions: up to 100 μmol l^–1 pridopidine
[14] = not given; remark: listed apart in the source
[15] = Safety and adverse events in the phase‐1 study in healthy subjects; format: in vivo, human
[16] = up to 50 μmol l^–1 TV‐45065, three consecutive days
[17] = caused by steady‐state pridopidine (discussion)
[18] = metoprolol coadministered with pridopidine vs alone
[19] = up to 100 μmol l^–1 pridopidine, 3 days, three hepatocyte cultures
[20] = up to 100 μmol l^–1 pridopidine, cultured human hepatocytes

T2 sequence (P10635 whole entry): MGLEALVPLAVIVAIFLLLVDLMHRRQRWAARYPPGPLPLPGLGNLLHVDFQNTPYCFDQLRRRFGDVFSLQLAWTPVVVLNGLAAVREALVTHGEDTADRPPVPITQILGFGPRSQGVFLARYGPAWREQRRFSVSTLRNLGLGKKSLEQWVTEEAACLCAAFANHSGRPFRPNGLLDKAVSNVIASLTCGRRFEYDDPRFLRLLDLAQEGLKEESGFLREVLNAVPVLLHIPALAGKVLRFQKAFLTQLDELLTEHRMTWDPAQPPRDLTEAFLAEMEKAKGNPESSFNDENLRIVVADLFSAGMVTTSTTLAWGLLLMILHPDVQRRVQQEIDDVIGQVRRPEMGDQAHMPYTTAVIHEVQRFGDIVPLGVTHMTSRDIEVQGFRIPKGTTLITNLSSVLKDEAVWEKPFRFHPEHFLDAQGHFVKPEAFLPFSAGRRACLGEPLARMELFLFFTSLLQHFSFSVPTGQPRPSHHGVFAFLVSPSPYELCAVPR
Sequence of CYP3A4 (P08684 2-503): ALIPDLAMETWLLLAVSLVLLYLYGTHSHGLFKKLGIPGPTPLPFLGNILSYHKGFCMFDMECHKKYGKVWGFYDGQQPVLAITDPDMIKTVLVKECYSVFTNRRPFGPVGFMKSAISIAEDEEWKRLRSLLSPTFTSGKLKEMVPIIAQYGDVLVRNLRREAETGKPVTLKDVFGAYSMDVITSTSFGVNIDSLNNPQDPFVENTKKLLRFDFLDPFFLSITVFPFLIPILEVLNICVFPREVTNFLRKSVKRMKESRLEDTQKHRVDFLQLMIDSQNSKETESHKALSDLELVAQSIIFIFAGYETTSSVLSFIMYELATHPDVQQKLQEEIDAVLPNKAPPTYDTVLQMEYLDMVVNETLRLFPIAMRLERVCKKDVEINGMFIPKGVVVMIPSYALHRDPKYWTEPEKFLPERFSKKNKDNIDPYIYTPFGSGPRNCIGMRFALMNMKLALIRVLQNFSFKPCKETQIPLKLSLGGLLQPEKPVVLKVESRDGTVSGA
Sequence of CYP2C9 (Homo sapiens, UniProt P11712) (P11712 whole entry): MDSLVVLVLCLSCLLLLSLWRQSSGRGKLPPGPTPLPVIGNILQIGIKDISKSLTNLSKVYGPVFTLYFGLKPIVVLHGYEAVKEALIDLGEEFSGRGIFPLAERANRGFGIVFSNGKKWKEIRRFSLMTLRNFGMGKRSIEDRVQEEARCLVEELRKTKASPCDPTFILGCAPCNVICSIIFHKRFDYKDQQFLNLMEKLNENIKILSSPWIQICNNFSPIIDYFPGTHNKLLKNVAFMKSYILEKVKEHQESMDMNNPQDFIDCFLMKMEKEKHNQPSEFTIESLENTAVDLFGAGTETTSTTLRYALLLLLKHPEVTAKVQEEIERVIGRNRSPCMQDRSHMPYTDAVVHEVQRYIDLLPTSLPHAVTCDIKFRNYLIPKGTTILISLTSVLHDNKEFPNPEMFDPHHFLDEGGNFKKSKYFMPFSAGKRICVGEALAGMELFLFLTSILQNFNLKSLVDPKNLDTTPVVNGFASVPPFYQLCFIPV
Sequence of CYP2C19 (Homo sapiens, UniProt P33261) (P33261 whole entry): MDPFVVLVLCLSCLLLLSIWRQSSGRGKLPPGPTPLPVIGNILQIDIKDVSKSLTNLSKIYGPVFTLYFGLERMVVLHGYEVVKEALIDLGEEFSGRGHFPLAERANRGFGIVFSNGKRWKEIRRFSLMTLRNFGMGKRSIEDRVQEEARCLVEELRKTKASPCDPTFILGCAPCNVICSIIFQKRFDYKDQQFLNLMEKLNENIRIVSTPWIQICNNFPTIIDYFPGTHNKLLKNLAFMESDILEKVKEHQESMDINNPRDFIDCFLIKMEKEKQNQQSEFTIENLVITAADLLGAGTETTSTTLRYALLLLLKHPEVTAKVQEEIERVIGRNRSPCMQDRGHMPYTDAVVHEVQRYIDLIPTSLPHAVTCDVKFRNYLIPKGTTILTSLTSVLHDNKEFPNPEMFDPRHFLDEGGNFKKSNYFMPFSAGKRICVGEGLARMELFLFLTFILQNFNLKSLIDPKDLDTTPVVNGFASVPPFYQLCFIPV

Structure (SMILES): CS(=O)(=O)c1cccc(C2CCNCC2)c1 [TV‐45065]
- CYP3A4/5 induction, effectiveness relative to positive control CYP inducer (CYP3A4/5; [16]): ≤ 20%
- increase in CYP3A4/5 activity or mRNA expression (on average) (CYP3A4/5; [16]): ≤ 2.0 fold
- CYP1A2 induction, effectiveness relative to positive control CYP inducer (CYP1A2 [1]; [16]): ≤ 20%
- increase in CYP1A2 activity or mRNA expression (on average) (CYP1A2 [1]; [16]): ≤ 2.0 fold
- direct inhibition of CYP2C9 (CYP2C9 [2]): did not show any direct inhibition
- CYP2C8 induction, effectiveness relative to positive control CYP inducer (CYP2C8 [3]; [16]): ≤ 20%
- increase in CYP2C8 activity or mRNA expression (on average) (CYP2C8 [3]; [16]): ≤ 2.0 fold
- Cmax and AUC, fed vs fasted states (metabolite after single 90‐mg pridopidine dose, data not shown): similar
- direct inhibition of CYP2C8 (CYP2C8 [4]): did not show any direct inhibition
- direct inhibition of CYP2C19 (CYP2C19 [5]): did not show any direct inhibition
- direct inhibition of CYP2D6 (CYP2D6 [6]; HLM, TV‐45065 0.05 to 50 μmol l^–1): did not show any direct inhibition
- IC50 (CYP2D6 [6]; read-out: IC50, time‐/metabolism‐dependent inhibition of CYP2D6, HLM, TV‐45065 0.05 to 50 μmol l^–1): > 50 µM
- CYP2B6 induction, effectiveness relative to positive control CYP inducer (CYP2B6; [16]): ≤ 20%
- increase in CYP2B6 activity or mRNA expression (on average) (CYP2B6; [16]): ≤ 2.0 fold
- direct inhibition of CYP1A2 (CYP1A2 [7]): did not show any direct inhibition
- direct inhibition of CYP3A4 (CYP3A4): did not show any direct inhibition
- elimination half‐life ([8]; repeated administration, extensive metabolizers): 17 h
- elimination half‐life ([8]; repeated administration, poor metabolizers): 19 h
- elimination half‐life ([8]; single dose administration, extensive metabolizers): approximately 8 h
- elimination half‐life ([8]; single dose administration, poor metabolizers): ~32 h
- CYP2C19 induction, effectiveness relative to positive control CYP inducer (CYP2C19 [9]; [16]): ≤ 20%
- increase in CYP2C19 activity or mRNA expression (on average) (CYP2C19 [9]; [16]): ≤ 2.0 fold
- CYP2C9 induction, effectiveness relative to positive control CYP inducer (CYP2C9 [10]; [16]): ≤ 20%
- increase in CYP2C9 activity or mRNA expression (on average) (CYP2C9 [10]; [16]): ≤ 2.0 fold

Structure (SMILES): COCCc1ccc(OCC(O)CNC(C)C)cc1 (stereo not shown) [metoprolol]
- Tmax (CYP2D6 [11]; oral): 0.75 to 2 h
- AUC(0-inf) (CYP2D6 [11]; po): 460 ng·h/mL
- AUC(0-t) (CYP2D6 [11]; po): 447 ng·h/mL
- Cmax (CYP2D6 [11]; po): 84 ng/mL
- Tmax (CYP2D6 [11]; po): ~2 h
- increase in metoprolol AUC (CYP2D6 [12]; [17]): up to 5 fold
- increase in metoprolol peak concentrations (CYP2D6 [12]; [17]): up to 3 fold
- t½, mean (SD) (CYP2D6 [12]; metoprolol 100 mg single oral dose alone): 3.69 (0.83) h
- increase in mean AUC0–∞ (CYP2D6 [12]; [18]): 5.1 fold
- increase in mean Cmax (CYP2D6 [12]; [18]): 3.5 fold
- range of tmax (CYP2D6 [12]; metoprolol during coadministration with pridopidine): 1 to 4 h

Structure (SMILES): CCCN1CCC(c2cccc(S(C)(=O)=O)c2)CC1 [pridopidine, 4‐[3‐(methylsulfonyl)phenyl]‐1‐propylpidperidine]
- change in CYP3A4 mRNA levels (CYP3A4/5; [19]): < 2 fold
- change in CYP1A2 mRNA levels (CYP1A2 [1]; [19]): < 2 fold
- change in CYP1A2 activity (CYP1A2 [1]; [20]): < 2 fold
- change in CYP2C8 mRNA levels (CYP2C8 [3]; [19]): < 2 fold
- change in CYP2C8 activity (CYP2C8 [3]; [20]): < 2 fold
- difference in median tmax, fed state in comparison to fasted state (single 90‐mg dose): 1.5 h
- effect of heat inactivation of FMO on CYP2D6 MDI extent (CYP2D6 [6]; HLM heat treated (50°C, 2 min)): did not affect
- IC50 (CYP2D6 [6]; IC50, direct inhibition (no preincubation), HLM, preincubation time row 2 h): 39 µM
- IC50 (CYP2D6 [6]; IC50, direct inhibition (no preincubation), HLM, preincubation time row 3 h): 39 µM
- IC50 (CYP2D6 [6]; IC50, direct inhibition (no preincubation), HLM, preincubation time row 4 h): 39 µM
- reversibility of metabolism‐dependent inhibition of CYP2D6 (CYP2D6 [6]; microsomal re‐isolation or addition of potassium ferricyanide): not reversed
- Cmax (clinical): 525 ng/mL
- decrease in CYP2D6 activity compared to vehicle control (CYP2D6 [13]; hepatocyte cultures, vehicle 0.1% DMSO): up to 64.2%
- change in CYP2D6 mRNA levels (CYP2D6 [13]; 3 days, three hepatocyte cultures): < 2 fold
- change in CYP2B6 mRNA levels (CYP2B6; [19]): < 2 fold
- change in CYP2B6 activity (CYP2B6; [20]): < 2 fold
- Cmax,ss, mean (SD) ([14]; 45 mg BID for 7 days, PM (6–18 h), metoprolol given with PM dose): 727.30 (152.38) ng ml^–1
- Cav,ss, mean (SD) ([14]; 45 mg BID, AM (0–6 h)): 407.29 (90.82)
- AUCss, mean (SD) ([14]; 45 mg BID, AM (0–6 h), AUC0–6): 2443.75 (544.95) ng h ml^–1
- Cav,ss, mean (SD) ([14]; 45 mg BID, PM (6–18 h)): 447.33 (92.19)
- AUCss, mean (SD) ([14]; 45 mg BID, PM (6–18 h), AUC0–18 following the afternoon dose): 8052.03 (1659.34) ng h ml^–1
- time of BID dosing after which steady state was reached ([14]; 45 mg BID, morning trough plasma levels): 7 days
- time (tmax) to reach Cmax ([8]; oral administration): roughly 2 h
- mean peak concentration in plasma ([8]; single 45‐mg dose): 303 ng ml^–1
- pridopidine exposure ([8]; single dose, extensive metabolizers): 3782 ng h ml^–1
- pridopidine exposure ([8]; single dose, poor metabolizers): 11 192 ng h ml^–1
- mean peak concentration in plasma ([8]; steady state following 14 days of 45 mg BID dosing): 620 ng ml^–1
- pridopidine exposure ([8]; steady state, extensive metabolizers): 9338 ng h ml^–1
- pridopidine exposure ([8]; steady state, poor metabolizers): 12 080 ng ml^–1
- change in CYP2C19 mRNA levels (CYP2C19 [9]; [19]): < 2 fold
- change in CYP2C19 activity (CYP2C19 [9]; [20]): < 2 fold
- amnestic aphasia, subjects ([15]; following BID administration, two subjects): 9.1%
- increase in pulse rate ([15]; pridopidine 45 mg BID): up to 12 beats min^–1
- change in CYP2C9 mRNA levels (CYP2C9 [10]; [19]): < 2 fold
- change in CYP2C9 activity (CYP2C9 [10]; [20]): < 2 fold

From PMC5595947 (British Journal of Clinical Pharmacology, 2017)
